Reference: ChEMBL document CHEMBL1201862, “PubChem BioAssay data set” (2004)
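Interpolation was linear, between the two tested concentrations surrounding the appropriate level; five concentrations were tested over 48 hours in 96-well plates. At the GI50, growth is halved.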 The source made the active and inactive calls. No stated cut-off is given here; in the data, active = GI50 up to about 1.1 µM and inactive = higher.

How the values were obtained:
Assay in all cases: growth of human tumour cells (NCI), 48 h
A498 = tested on: A498
A549 = tested on: A549
COLO 205 = tested on: COLO 205
HOP-92 = tested on: HOP-92
HT-29 = tested on: HT-29
Hs-578T = tested on: Hs-578T
K562 = tested on: K562
MCF7 = tested on: MCF7
MOLT-4 = tested on: MOLT-4
Malme-3M = tested on: Malme-3M
NCI-H522 = tested on: NCI-H522
NCI/ADR-RES = tested on: NCI/ADR-RES
OVCAR-3 = tested on: OVCAR-3
OVCAR-4 = tested on: OVCAR-4
OVCAR-5 = tested on: OVCAR-5
PC-3 = tested on: PC-3
SN12C = tested on: SN12C
UACC-257 = tested on: UACC-257
UACC-62 = tested on: UACC-62
UO-31 = tested on: UO-31

| SMILES | GI50 (A498) | GI50 (A549) | GI50 (COLO 205) | GI50 (HOP-92) | GI50 (HT-29) | GI50 (Hs-578T) | GI50 (K562) | GI50 (MCF7) | GI50 (MOLT-4) | GI50 (Malme-3M) | GI50 (NCI-H522) | GI50 (NCI/ADR-RES) | GI50 (OVCAR-3) | GI50 (OVCAR-4) | GI50 (OVCAR-5) | GI50 (PC-3) | GI50 (SN12C) | GI50 (UACC-257) | GI50 (UACC-62) | GI50 (UO-31) |
| --- | --- | --- | --- | --- | --- | --- | --- | --- | --- | --- | --- | --- | --- | --- | --- | --- | --- | --- | --- | --- |
| N#C/C(=C\NC(=S)Nc1ccc(S(=O)(=O)Nc2ccccn2)cc1)C(N)=O | > 100 µM (inactive) | > 100 µM (inactive) | > 100 µM (inactive) | > 100 µM (inactive) | > 100 µM (inactive) | > 100 µM (inactive) | 47.9 µM (inactive) | > 100 µM (inactive) | 25.5 µM (inactive) | > 100 µM (inactive) | > 100 µM (inactive) | > 100 µM (inactive) | > 100 µM (inactive) | > 100 µM (inactive) | > 100 µM (inactive) | > 100 µM (inactive) | > 100 µM (inactive) | > 100 µM (inactive) | > 100 µM (inactive) | > 100 µM (inactive) |
| N#Cc1c(N)nc(Sc2ccccc2N)c(C#N)c1-c1ccc(Cl)cc1 | 2.65 µM (inactive) | 9.4 µM (inactive) | 28.5 µM (inactive) | 15.8 µM (inactive) | 7.71 µM (inactive) | 7.26 µM (inactive) | 3.07 µM (inactive) | 7.05 µM (inactive) | 1.37 µM (inactive) | 6.61 µM (inactive) | 11.6 µM (inactive) | 6.4 µM (inactive) | 6.34 µM (inactive) | 17.8 µM (inactive) | 27.1 µM (inactive) | 3.71 µM (inactive) | 13.8 µM (inactive) | 15.9 µM (inactive) | 4.06 µM (inactive) | 2.79 µM (inactive) |
| C=C/C(C)=C\CC1[C@](C)(O)CC[C@H]2C(C)(C)C(=O)CC[C@]12C (stereo not given in full) | > 100 µM (inactive) | 62.7 µM (inactive) | 92.3 µM (inactive) | > 100 µM (inactive) | 47.6 µM (inactive) | > 100 µM (inactive) | 57.7 µM (inactive) | 60.4 µM (inactive) | 19.1 µM (inactive) | > 100 µM (inactive) | 62.7 µM (inactive) | 60 µM (inactive) | 41.7 µM (inactive) | 54.3 µM (inactive) | > 100 µM (inactive) | 34.6 µM (inactive) | > 100 µM (inactive) | 64.4 µM (inactive) | > 100 µM (inactive) | 23.9 µM (inactive) |
| COC(=O)C1(C(=O)OC)CC(=O)c2c(OC(=O)c3cccc(OC)c3C#N)ccc(OC(=O)c3cccc(OC)c3C#N)c2C1 | 31.3 µM (inactive) | > 100 µM (inactive) | > 100 µM (inactive) | 83.8 µM (inactive) | > 100 µM (inactive) | > 100 µM (inactive) | > 100 µM (inactive) | > 100 µM (inactive) | > 100 µM (inactive) | > 100 µM (inactive) | > 100 µM (inactive) | > 100 µM (inactive) | > 100 µM (inactive) | > 100 µM (inactive) | > 100 µM (inactive) | > 100 µM (inactive) | > 100 µM (inactive) | > 100 µM (inactive) | > 100 µM (inactive) | 59.2 µM (inactive) |
| COCCOC(=O)c1c(C)[n+]([O-])c2cc(Cl)c(Cl)cc2[n+]1[O-] | 20.3 µM (inactive) | 12.7 µM (inactive) | 12.5 µM (inactive) | 5.21 µM (inactive) | 18.7 µM (inactive) | 32.7 µM (inactive) | 13.7 µM (inactive) | 11.1 µM (inactive) | 13.1 µM (inactive) | 18.5 µM (inactive) | 17.1 µM (inactive) | 11 µM (inactive) | 13.4 µM (inactive) | 14.4 µM (inactive) | 16.7 µM (inactive) | 21.3 µM (inactive) | 20 µM (inactive) | 20.2 µM (inactive) | 14.8 µM (inactive) | 0.311 µM (active) |
| CC(C)=NOC(=O)CNC(=O)C(Cc1ccccc1)NC(=O)C(C)NC(=O)OC(C)(C)C (stereo not given) | > 100 µM (inactive) | > 100 µM (inactive) | > 100 µM (inactive) | > 100 µM (inactive) | > 100 µM (inactive) | > 100 µM (inactive) | > 100 µM (inactive) | > 100 µM (inactive) | > 100 µM (inactive) | > 100 µM (inactive) | > 100 µM (inactive) | > 100 µM (inactive) | > 100 µM (inactive) | > 100 µM (inactive) | > 100 µM (inactive) | > 100 µM (inactive) | > 100 µM (inactive) | > 100 µM (inactive) | > 100 µM (inactive) | > 100 µM (inactive) |
| CNc1nc2c(C)ccc3nc(N(C)C)[nH]c3c-2n1 | 85.1 µM (inactive) | 39.9 µM (inactive) | 26.7 µM (inactive) | > 100 µM (inactive) | 30.7 µM (inactive) | 97.9 µM (inactive) | 12.8 µM (inactive) | 31.5 µM (inactive) | 32.7 µM (inactive) | 31.1 µM (inactive) | 54 µM (inactive) | 77.1 µM (inactive) | 82.2 µM (inactive) | 19.5 µM (inactive) | 74.8 µM (inactive) | 46.9 µM (inactive) | 36.1 µM (inactive) | 33.3 µM (inactive) | 68.7 µM (inactive) | 34.6 µM (inactive) |
| CC(=O)NNC1=NN(C(C)=O)C2(S1)C(=O)Nc1ccc(C)cc12 (stereo not given) | 38.1 µM (inactive) | 94 µM (inactive) | > 100 µM (inactive) | 29 µM (inactive) | > 100 µM (inactive) | 26.4 µM (inactive) | 48.3 µM (inactive) | 58.7 µM (inactive) | > 100 µM (inactive) | 49.7 µM (inactive) | 42 µM (inactive) | > 100 µM (inactive) | > 100 µM (inactive) | 88.1 µM (inactive) | > 100 µM (inactive) | 67.5 µM (inactive) | > 100 µM (inactive) | > 100 µM (inactive) | 39.4 µM (inactive) | 32.4 µM (inactive) |
| O=[N+]([O-])c1cccc([N+](=O)[O-])c1Cl | 21.8 µM (inactive) | 14.9 µM (inactive) | 20.6 µM (inactive) | 18.8 µM (inactive) | 19.9 µM (inactive) | 27 µM (inactive) | 5.71 µM (inactive) | 4.24 µM (inactive) | 3.56 µM (inactive) | 17.4 µM (inactive) | 12.6 µM (inactive) | 21.7 µM (inactive) | 1.29 µM (inactive) | 22.8 µM (inactive) | 19.1 µM (inactive) | 13.5 µM (inactive) | 23.4 µM (inactive) | 11 µM (inactive) | 17.5 µM (inactive) | 1.32 µM (inactive) |
| CS(=O)(=O)C(=Cc1ccccc1Cl)S(C)(=O)=O | > 100 µM (inactive) | > 100 µM (inactive) | > 100 µM (inactive) | > 100 µM (inactive) | > 100 µM (inactive) | > 91.2 µM (inactive) | 3.7 µM (inactive) | > 40.3 µM (inactive) | > 100 µM (inactive) | > 100 µM (inactive) | > 100 µM (inactive) | > 100 µM (inactive) | > 100 µM (inactive) | > 100 µM (inactive) | > 100 µM (inactive) | > 100 µM (inactive) | > 100 µM (inactive) | > 100 µM (inactive) | 24.4 µM (inactive) | > 100 µM (inactive) |
